Assay results published in patent publication US4314028A, “Fermentation process for producing tallysomycin compounds” (priority 1980, dated 1982).

How the values were obtained:
[1] = test system: Sarcoma 180; experiment: animal or person; type: in vivo, dd-strain mice; settings: copper-chelated form unless otherwise stated; for Antitumor activity S180 (ED150): ip, once daily 9 days, effective dose 150, survival; for Antitumor therapeutic index S180: single dose LD50/ED150
Text: (§1) The antitumor activity of the tallysomycin derivatives was examined in four experimental tumor systems in mice. Lymphocytic leukemia P388 and Lewis lung carcinoma were implanted intraperitoneally into BDF1 mice of either sex at an inoculum size of 3×10^5 and 5×10^5 cells per mouse, respectively. Sarcoma 180 ascites tumor was inoculated intraperitoneally into male dd-strain mice with […] per mouse. Melanotic melanoma B16 was implanted subcutaneously into BDF1 mice with 5×10^5 cells per mouse. Twenty-four hours after the implantation of tumor cells, graded doses of test compounds were administered to mice intraperitoneally in an injection volume of 0.2 ml. per 10 grams of body weight. Test compounds were given once daily for 9 days (qd 1→9 schedule) except for the mice inoculated with Lewis lung carcinoma which were treated for 11 days (qd 1→11). Death or survival of the treated and non-treated (control) animals was recorded daily during the observation period of 45 days after the implantation of tumor cells, and the median survival time was calculated for each of the test (T) and control (C) groups. […] The actual dose giving a T/C of 125% was estimated by linear regression analysis and defined as the effective dose 125 or ED125. The effective dose 150 (ED150) was employed for the evaluation of antitumor effect against Sarcoma 180. In the B16 melanoma experiment the tumor size was measured on day 16 after tumor inoculation, and the dose giving 50% inhibition of tumor growth (ID50) was calculated from regression lines.
(§2) The antitumor therapeutic index was calculated for each derivative from the ratio of toxicity and antitumor activity.

[2] = test system: Lymphocytic leukemia P388; experiment: animal or person; type: in vivo, BDF1 mice; settings: copper-chelated form unless otherwise stated; for Antitumor activity P388 (ED125): ip, once daily 9 days, dose giving T/C survival of 125%; for Antitumor therapeutic index P388: single dose LD50/ED125
Text: as §1, §2

[3] = test system: Mycobacterium smegmatis strain M6-3; experiment: Relative antibacterial potency, paper-disc agar diffusion method; type: cell-based; settings: relative to tallysomycin A standard=1000 mcg/mg
Experimental: The relative antibacterial potencies (tallysomycin A standard=1000 mcg/mg) of the tallysomycin derivatives were determined by the paper-disc agar diffusion method using Mycobacterium smegmatis strain M6-3 as the assay organism.

[4] = test system: Sarcina lutea PCI1001; experiment: MIC, two-fold agar dilution method; type: cell-based; settings: nutrient agar
Experimental: (§3) The minimum inhibitory concentrations (MIC) of the semibiosynthetic tallysomycin derivatives of the present invention were determined against fungi and gram-positive, gram-negative and acid-fast bacteria by the two-fold agar dilution method. Nutrient agar was used for bacteria and Sabouraud agar for fungi. The results are shown in the table below comparatively with tallysomycin A and B.

[5] = test system: Mycobacterium 607; experiment: MIC, two-fold agar dilution method; type: cell-based; settings: nutrient agar
Experimental: as §3

[6] = test system: Staphylococcus aureus Smith; experiment: MIC, two-fold agar dilution method; type: cell-based; settings: nutrient agar
Experimental: as §3

[7] = test system: Escherichia coli NIHJ; experiment: MIC, two-fold agar dilution method; type: cell-based; settings: nutrient agar
Experimental: as §3

[8] = test system: Aspergillus fumigatus IAM 2593; experiment: MIC, two-fold agar dilution method; type: cell-based; settings: Sabouraud agar
Experimental: as §3

[9] = test system: Candida albicans IAM 4888; experiment: MIC, two-fold agar dilution method; type: cell-based; settings: Sabouraud agar
Experimental: as §3

[10] = test system: Bacillus subtilis PCI 219; experiment: MIC, two-fold agar dilution method; type: cell-based; settings: nutrient agar
Experimental: as §3

[11] = test system: Proteus mirabilis A9554; experiment: MIC, two-fold agar dilution method; type: cell-based; settings: nutrient agar
Experimental: as §3

[12] = test system: lysogenic bacterium E. coli W1709 (λ); experiment: Prophage induction of lysogenic bacterium (ILB activity); type: cell-based; settings: t/c ratio of plaque counts greater than 3.0
Experimental: The activity of prophage induction of lysogenic bacterium E. coli W1709 (λ) was determined according to the method disclosed by Lein et al. in Nature 196: 783-784 (1962). The plaque count was made on the agar plate containing test compound (t) and control plate (c). A t/c ratio of the plaque counts of greater than 3.0 was defined to be a significant level and lysogenic induction activity (ILB activity) was expressed by the minimum inducible concentration of the test compound.

[13] = Acute toxicity, single dose LD50; type: in vivo, dd mice; settings: ip, 30 days observation, copper-chelated form unless otherwise stated
Experimental: Graded doses of test compounds were administered intraperitoneally to groups of dd mice. The injection was given one time only or once daily for 9 consecutive days. Death or survival of the animals was recorded for 30 days after the last dose of test compound to calculate the single or multiple median lethal dose (LD50).

[14] = test system: Lewis lung carcinoma; experiment: Antitumor activity in mice, Lewis lung carcinoma; type: in vivo, BDF1 mice; settings: copper-chelated form unless otherwise stated; for Antitumor activity Lewis lung (ED125): ip, once daily 11 days, dose giving T/C survival of 125%; for Antitumor therapeutic index Lewis Lung: single dose LD50/ED125
Text: as §1, §2

[15] = test system: Melanotic melanoma B16; experiment: Antitumor activity in mice, melanotic melanoma B16; type: in vivo, BDF1 mice; settings: copper-chelated form unless otherwise stated; for Antitumor activity B16 (ID50): ip, once daily 9 days, 50% inhibition of tumor growth, day 16, 23040 min; for Antitumor therapeutic index B16: single dose LD50/ID50
Text: as §1, §2

Row | SMILES | Antitumor activity S180 (ED150) [1] [mg/kg/day] | Antitumor therapeutic index S180 [1] | Antitumor activity P388 (ED125) [2] [mg/kg/day] | Antitumor therapeutic index P388 [2] | Antibacterial potency [3] | minimum inhibitory concentration (MIC) [4] | minimum inhibitory concentration (MIC) [5] | minimum inhibitory concentration (MIC) [6] | minimum inhibitory concentration (MIC) [7] | minimum inhibitory concentration (MIC) [8] | minimum inhibitory concentration (MIC) [9] | minimum inhibitory concentration (MIC) [10] | minimum inhibitory concentration (MIC) [11] | ILB activity (minimum inducible concentration) [12] [µg/mL] | LD50 single dose [13] [mg/kg/day] | Antitumor activity Lewis lung (ED125) [14] [mg/kg/day] | Antitumor therapeutic index Lewis Lung [14] | Antitumor activity B16 (ID50) [15] [mg/kg/day] | Antitumor therapeutic index B16 [15]
1 | Cc1c(N)nc(C(CC(N)=O)NCC(N)C(N)=O)nc1C(=O)NC(C(=O)NC(C)C(O)CC(=O)NC(C(=O)NC(OC1OC(C)C(N)C(O)C1O)C(O)c1nc(-c2nc(C(=O)NCCNCCO)cs2)cs1)C(C)O)C(OC1OC(CO)C(O)C(O)C1OC1OC(CO)C(O)C(OC(N)=O)C1O)c1c[nH]cn1 (stereo not drawn) [Tallysomycin S9b] | 0.42 | 76 | > 3.0 | < 11 | 380 μ/mg | 0.8 | 0.1 | 0.4 | 0.1 | 1.6 | 25 | 0.013 | 0.8 | 0.16 | 32 | 0.41 | 78 | 0.29 | 110
2 | Cc1c(N)nc(C(CC(N)=O)NCC(N)C(N)=O)nc1C(=O)NC(C(=O)NC(C)C(O)CC(=O)NC(C(=O)NC(OC1OC(C)C(N)C(O)C1O)C(O)c1nc(-c2nc(C(=O)NCCN)cs2)cs1)C(C)O)C(OC1OC(CO)C(O)C(O)C1OC1OC(CO)C(O)C(OC(N)=O)C1O)c1c[nH]cn1 (stereo not drawn) [Tallysomycin S3b] | 0.06 | 317 | 0.32 | 59 | 725 μ/mg | 1.6 | 0.05 | 0.8 | 0.1 | 0.8 | 12.5 | 0.013 | 0.2 | 0.31 | 19 | 0.26 | 73 | 0.20 | 95
3 | Cc1c(N)nc(C(CC(N)=O)NCC(N)C(N)=O)nc1C(=O)NC(C(=O)NC(C)C(O)CC(=O)NC(C(=O)NC(OC1OC(C)C(N)C(O)C1O)C(O)c1nc(-c2nc(C(=O)NCCCC(N)CC(=O)NCCCNCCO)cs2)cs1)C(C)O)C(OC1OC(CO)C(O)C(O)C1OC1OC(CO)C(O)C(OC(N)=O)C1O)c1c[nH]cn1 (stereo not drawn) [Tallysomycin S6a] | 0.09 | 167 | 0.70 | 21 | 460 μ/mg | 1.6 | 0.4 | 0.8 | 0.4 | 0.2 | 6.3 | 0.03 | 1.6 | 0.02 | 15 | 0.47 | 32 | 0.12 | 125
4 | CNCCCNC(=O)c1csc(-c2csc(C(O)C(NC(=O)C(NC(=O)CC(O)C(C)NC(=O)C(NC(=O)c3nc(C(CC(N)=O)NCC(N)C(N)=O)nc(N)c3C)C(OC3OC(CO)C(O)C(O)C3OC3OC(CO)C(O)C(OC(N)=O)C3O)c3c[nH]cn3)C(C)O)OC3OC(C)C(N)C(O)C3O)n2)n1 (stereo not drawn) [Tallysomycin S11b] | 0.20 | 105 | 0.28 | 75 | 450 μ/mg | 0.8 | 0.1 | 3.1 | 0.2 | 6.3 | 12.5 | 0.1 | 1.6 | 0.63 | 21 | 0.32 | 66 | 0.70 | 30
5 | Cc1c(N)nc(C(CC(N)=O)NCC(N)C(N)=O)nc1C(=O)NC(C(=O)NC(C)C(O)CC(=O)NC(C(=O)NC(OC1OC(C)C(N)C(O)C1O)C(O)c1nc(-c2nc(C(=O)NCCCN(CCO)CCO)cs2)cs1)C(C)O)C(OC1OC(CO)C(O)C(O)C1OC1OC(CO)C(O)C(OC(N)=O)C1O)c1c[nH]cn1 (stereo not drawn) [Tallysomycin S8b] | 0.25 | 120 | 1.5 | 20 | 370 μ/mg | 0.8 | 0.1 | 0.4 | 0.2 | 1.6 | > 50 | 0.013 | 0.8 | 0.02 | 30 | 0.12 | 250 | 0.26 | 115
6 | Cc1c(N)nc(C(CC(N)=O)NCC(N)C(N)=O)nc1C(=O)NC(C(=O)NC(C)C(O)CC(=O)NC(C(=O)NC(OC1OC(C)C(N)C(O)C1O)C(O)c1nc(-c2nc(C(=O)NCCCN)cs2)cs1)C(C)O)C(OC1OC(CO)C(O)C(O)C1OC1OC(CO)C(O)C(OC(N)=O)C1O)c1c[nH]cn1 (stereo not drawn) [Tallysomycin S1b] | 0.11 | 173 | 2.0 | 10 | 1,000 μ/mg | 1.6 | < 0.05 | 1.6 | 0.4 | 1.6 | 12.5 | < 0.05 | 1.6 | 0.31 | 19 | 0.12 | 158 | 0.15 | 127
